Laboratory results as given in patent US11472769B2, “SSAO inhibitors and use thereof” (Eccogene (Shanghai) Co., Ltd., priority 2019, dated 2022).
Each block holds one compound with its values, some of them ahead of it.

Columns and labels:
Format in all cases: biochemical
recombinant hSSAO = recombinant hSSAO (Homo sapiens (Human), UniProt Q16853); experiment: SSAO Activity Assay (MAO-Glo assay kit); settings: 40 μM substrate, 30 mins pre-incubation
Description: (§1) The biological activities of the compounds of the present application can be assessed with methods and assays known in the art. For example, the potency of the compounds of the present application can be evaluated with an SSAO Activity Assay. Briefly, compounds of the present application can be applied to recombinant hSSAO, hMAO-A, and hMAO-B isoforms and the amine oxidase activity of the enzymes are measured after the addition and subsequent oxidation of the luminogenic substrate (e.g., with the MAO-Glo assay kit from Promega). The IC50 can be calculated, for example, by fitting the dose response curve using a 4-parameter non-linear regression routine.
(§2) Amine oxidase activity of recombinant hSSAO, hMAO-A, and hMAO-B isoforms are measured using the MAO-Glo assay kit (Promega, V1402). Ten nL test compounds (with DMSO as vehicle, 0.1% v/v for hSSAO, hMAO-A and hMAO-B) were added into assay plates by Echo, and pre-incubated with 5 μL of enzyme for 30 mins at room temperature before the addition of 5 μL of luminogenic substrate. The substrate concentration is 40 μM for human recombinant SSAO, 40 μM for human recombinant MAO-A, and 4 μM for human recombinant MAO-B. The hSSAO and hMAO-A assays were conducted in the MAO-A reaction buffer in the kit, and the MAO-B assay was conducted in the MAO-B reaction buffer. Oxidation of the substrate was conducted for 1 hr, before the addition of detecting reagent according the manufacture's protocol. The IC50 value of the tested compounds was calculated by fitting the dose response curve using a 4-parameter non-linear regression routine.

recombinant hMAO-A = recombinant hMAO-A (Homo sapiens (Human), UniProt P21397); experiment: MAO-A activity assay (MAO-Glo assay kit); settings: 40 μM substrate, 30 mins pre-incubation
Chain of recombinant hMAO-A (P21397 whole entry): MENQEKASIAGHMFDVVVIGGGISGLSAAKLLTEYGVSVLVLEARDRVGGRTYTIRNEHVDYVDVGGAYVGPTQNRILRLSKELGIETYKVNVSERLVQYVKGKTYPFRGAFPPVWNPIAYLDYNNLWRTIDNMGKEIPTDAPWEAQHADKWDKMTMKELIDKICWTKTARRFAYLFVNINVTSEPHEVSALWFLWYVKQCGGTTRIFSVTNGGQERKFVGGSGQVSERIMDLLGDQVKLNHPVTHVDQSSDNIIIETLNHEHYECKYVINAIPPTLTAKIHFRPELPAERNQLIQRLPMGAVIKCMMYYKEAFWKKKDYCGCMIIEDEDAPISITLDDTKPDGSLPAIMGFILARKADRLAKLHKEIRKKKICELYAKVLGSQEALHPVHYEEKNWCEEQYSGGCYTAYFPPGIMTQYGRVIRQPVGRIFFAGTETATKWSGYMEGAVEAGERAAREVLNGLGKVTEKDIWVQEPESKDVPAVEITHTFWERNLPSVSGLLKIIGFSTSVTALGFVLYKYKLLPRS
Description: as §1, §2

recombinant hMAO-B = recombinant hMAO-B (Homo sapiens (Human), UniProt P27338); experiment: MAO-B activity assay (MAO-Glo assay kit); settings: 4 μM substrate, 30 mins pre-incubation
Chain of recombinant hMAO-B (P27338 whole entry): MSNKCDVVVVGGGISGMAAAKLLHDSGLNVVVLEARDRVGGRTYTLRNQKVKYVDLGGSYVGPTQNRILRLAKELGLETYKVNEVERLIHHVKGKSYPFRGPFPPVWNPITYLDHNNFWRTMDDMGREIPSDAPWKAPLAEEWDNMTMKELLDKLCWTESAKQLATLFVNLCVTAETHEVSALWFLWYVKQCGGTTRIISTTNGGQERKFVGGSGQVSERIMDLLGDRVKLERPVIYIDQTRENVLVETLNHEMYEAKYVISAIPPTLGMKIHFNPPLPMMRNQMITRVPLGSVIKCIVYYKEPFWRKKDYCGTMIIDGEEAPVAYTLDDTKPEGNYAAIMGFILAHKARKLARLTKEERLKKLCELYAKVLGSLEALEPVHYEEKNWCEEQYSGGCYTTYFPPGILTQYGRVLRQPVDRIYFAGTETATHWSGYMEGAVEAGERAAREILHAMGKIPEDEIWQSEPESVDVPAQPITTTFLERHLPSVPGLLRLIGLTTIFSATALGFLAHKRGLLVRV
Description: as §1, §2

Chain of recombinant hSSAO (Q16853 whole entry, canonical isoform): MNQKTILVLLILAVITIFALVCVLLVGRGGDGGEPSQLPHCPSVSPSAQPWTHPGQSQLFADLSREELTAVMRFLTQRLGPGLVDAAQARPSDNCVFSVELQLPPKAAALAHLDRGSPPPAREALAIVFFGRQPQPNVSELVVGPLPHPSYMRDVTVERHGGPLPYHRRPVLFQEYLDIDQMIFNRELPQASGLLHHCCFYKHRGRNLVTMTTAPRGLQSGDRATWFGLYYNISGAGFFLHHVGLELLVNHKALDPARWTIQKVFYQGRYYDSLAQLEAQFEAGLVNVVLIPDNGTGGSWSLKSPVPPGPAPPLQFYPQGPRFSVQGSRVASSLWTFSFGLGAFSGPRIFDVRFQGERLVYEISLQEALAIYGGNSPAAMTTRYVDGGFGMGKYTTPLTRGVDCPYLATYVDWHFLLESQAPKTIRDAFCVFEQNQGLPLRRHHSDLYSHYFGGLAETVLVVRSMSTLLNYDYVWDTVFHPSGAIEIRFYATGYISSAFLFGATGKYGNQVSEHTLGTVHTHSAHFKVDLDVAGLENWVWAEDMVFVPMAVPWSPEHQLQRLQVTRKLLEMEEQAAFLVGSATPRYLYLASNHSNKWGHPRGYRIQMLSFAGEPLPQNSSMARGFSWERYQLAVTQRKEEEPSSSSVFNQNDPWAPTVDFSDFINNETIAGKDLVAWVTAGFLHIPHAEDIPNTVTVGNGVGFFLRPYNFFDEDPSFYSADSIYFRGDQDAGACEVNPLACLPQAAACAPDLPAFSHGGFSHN

Compound: NC/C(=C\F)COc1ccc(S(=O)(=O)CC2CCOCC2)c(Cl)c1 [compound 8, (E)-2-((3-chloro-4-(((tetrahydro-2H-pyran-4-yl)methyl)sulfonyl)phenoxy)methyl)-3-fluoroprop-2-en-1-amine]
- IC50 (recombinant hSSAO): 0.02 to 0.1 µM
- IC50 (recombinant hMAO-A): 10 to 30 µM

Compound: CC1CCN(C23CCC(CS(=O)(=O)c4ccc(OC/C(=C/F)CN)cc4)(CC2)CC3)C1=O (stereo not shown) [compound 83, (E)-1-(4-(((4-((2-(aminomethyl)-3-fluoroallyl)oxy)phenyl)sulfonyl)methyl)bicyclo[2.2.2]octan-1-yl)-3-methylpyrrolidin-2-one]
- IC50 (recombinant hMAO-B): 10 to 30 µM

Compound: NC/C(=C\F)COc1ccc(S(=O)(=O)Cc2ccc(C(=O)NC3CCC3)c(C(F)(F)F)c2)cc1 [compound 89, (E)-4-(((4-((2-(aminomethyl)-3-fluoroallyl)oxy)phenyl)sulfonyl)methyl)-N-cyclobutyl-2-(trifluoromethyl)benzamide]
- IC50 (recombinant hSSAO): 0.1 to 0.5 µM
- IC50 (recombinant hMAO-B): 10 to 30 µM

Compound: CC(C)C(=O)N(C)CC(C)(C)CS(=O)(=O)c1ccc(OC/C(=C/F)CN)cc1 [compound 96, (E)-N-(3-((4-((2-(aminomethyl)-3-fluoroallyl)oxy)phenyl)sulfonyl)-2,2-dimethylpropyl)-N-methylisobutyramide]
- IC50 (recombinant hMAO-B): 10 to 30 µM

Compound: CCN(CC(C)(C)CS(=O)(=O)c1ccc(OC/C(=C/F)CN)cc1)C(=O)C(C)C [compound 98, (E)-N-(3-((4-((2-(aminomethyl)-3-fluoroallyl)oxy)phenyl)sulfonyl)-2,2-dimethylpropyl)-N-ethylisobutyramide]
- IC50 (recombinant hSSAO): 0.02 to 0.1 µM
- IC50 (recombinant hMAO-B): 10 to 30 µM

Compound: NC/C(=C\F)COc1ccc(S(=O)(=O)CC23CCC(C(=O)NC4CCC4)(CC2)C3)cc1 [compound 143, (E)-4-(((4-((2-(aminomethyl)-3-fluoroallyl)oxy)phenyl)sulfonyl)methyl)-N-cyclobutylbicyclo[2.2.1]heptane-1-carboxamide]
- IC50 (recombinant hSSAO): 0.02 to 0.1 µM

Compound: CC(C)(C)C(=O)NC12CCC(CS(=O)(=O)c3ccc(OC/C(=C/F)CN)cc3)(CC1)C2 [compound 145, (E)-N-(4-(((4-((2-(aminomethyl)-3-fluoroallyl)oxy)phenyl)sulfonyl)methyl)bicyclo[2.2.1]heptan-1-yl)pivalamide]
- IC50 (recombinant hSSAO): 0.02 to 0.1 µM
- IC50 (recombinant hMAO-B): 10 to 30 µM

The next lines start with the values.

- IC50 (recombinant hSSAO): 0.02 to 0.1 µM
- IC50 (recombinant hMAO-B): 10 to 30 µM
Compound: NC/C(=C\F)COc1ccc(S(=O)(=O)CC23CCC(O)(CC2)CC3)cc1 [compound 17, (E)-4-(((4-((2-(aminomethyl)-3-fluoroallyl)oxy)phenyl)sulfonyl)methyl)bicyclo[2.2.2]octan-1-ol]

- IC50 (recombinant hMAO-B): 10 to 30 µM
Compound: NC/C(=C\F)COc1ccc(S(=O)(=O)CC23CCC(C4(O)CC4)(CC2)CC3)cc1 [compound 18, (E)-1-(4-(((4-((2-(aminomethyl)-3-fluoroallyl)oxy)phenyl)sulfonyl)methyl)bicyclo[2.2.2]octan-1-yl)cyclopropan-1-ol]

- IC50 (recombinant hMAO-B): 10 to 30 µM
Compound: COCS(=O)(=O)c1ccc(OC/C(=C/F)CN)cc1 [compound 28, (E)-3-fluoro-2-((4-((methoxymethyl)sulfonyl)phenoxy)methyl)prop-2-en-1-amine]

- IC50 (recombinant hSSAO): 0.02 to 0.1 µM
- IC50 (recombinant hMAO-B): 10 to 30 µM
Compound: NC/C(=C\F)COc1ccc(S(=O)(=O)COCC2CCN(C(=O)C3(C(F)(F)F)CC3)CC2)cc1 [compound 35, (E)-(4-((((4-((2-(aminomethyl)-3-fluoroallyl)oxy)phenyl)sulfonyl)methoxy)methyl)piperidin-1-yl)(1-(trifluoromethyl)cyclopropyl)methanone]

- IC50 (recombinant hMAO-B): 10 to 30 µM
Compound: NC/C(=C\F)COc1ccc(S(=O)(=O)CC23CCC(C(=O)NC4CCC4)(CC2)CC3)cc1 [compound 64, (E)-4-(((4-((2-(aminomethyl)-3-fluoroallyl)oxy)phenyl)sulfonyl)methyl)-N-cyclobutylbicyclo[2.2.2]octane-1-carboxamide]

- IC50 (recombinant hMAO-B): 10 to 30 µM
Compound: NC/C(=C\F)COc1ccc(S(=O)(=O)CC23CCC(NC(=O)C4CC4)(CC2)CC3)cc1 [compound 76, (E)-N-(4-(((4-((2-(aminomethyl)-3-fluoroallyl)oxy)phenyl)sulfonyl)methyl)bicyclo[2.2.2]octan-1-yl)cyclopropanecarboxamide]
